Data published in patent US10023577B2, “Crystalline form of JAK kinase inhibitor bisulfate and a preparation method thereof” (Jiangsu Hengrui Medicine Co., Ltd., priority 2014, dated 2018).
“Also recorded” adds a separate entry of the source.

Assays:
[1] = Stability of samples spread flat in the air under lighting, heating and high humidity, purity by HPLC; type: physicochemical
Experimental: Crystal form II prepared in Example 1 and the amorphous sample prepared in Example 2 were spread flat in the air to test their stability in conditions of lighting (4500 Lux), heating (40° C., 60′C.), and high humidity (RH 75%, RH 90%).

[2] = Special stability study: grinding, heating and pressing of the crystal form; type: physicochemical
Text: Crystal form II of the compound of formula (I) prepared according to the method of Example 1 was ground, heated and pressed.

COc1nsc(NC(=O)N2C[C@H]3C[C@H](N(C)c4ncnc5[nH]ccc45)C[C@H]3C2)n1 [Amorphous Form, (3aR,5s,6aS)—N-(3-methoxyl-1,2,4-thiadiazole-5-yl)-5-(methyl(7H-pyrrolo[2,3-d]pyrimidine-4-yl)amino)hexahydrocyclopenta[c]pyrrole-2(1H)-formamide bisulfate]
purity as detected by HPLC ([1]; 40° C., Day 0): 98.33%
purity as detected by HPLC ([1]; 40° C., Day 5): 97.65%
purity as detected by HPLC ([1]; 40° C., Day 10): 96.61%
purity as detected by HPLC ([1]; 60° C., Day 0): 98.33%
purity as detected by HPLC ([1]; 60° C., Day 5): 94.53%
purity as detected by HPLC ([1]; 60° C., Day 10): 92.12%
purity as detected by HPLC ([1]; Lighting (4500 Lux), Day 0): 98.33%
purity as detected by HPLC ([1]; Lighting (4500 Lux), Day 5): 98.04%
purity as detected by HPLC ([1]; Lighting (4500 Lux), Day 10): 97.51%
purity as detected by HPLC ([1]; RH 75%, Day 0): 98.33%
purity as detected by HPLC ([1]; RH 75%, Day 5): 98.32%
purity as detected by HPLC ([1]; RH 75%, Day 10): 98.16%
purity as detected by HPLC ([1]; RH 90%, Day 0): 98.33%
purity as detected by HPLC ([1]; RH 90%, Day 5): 99.14%
purity as detected by HPLC ([1]; RH 90%, Day 10): 99.12%
effect of high humidity on stability [1]: does not have much effect

COc1nsc(NC(=O)N2C[C@H]3C[C@H](N(C)c4ncnc5[nH]ccc45)C[C@H]3C2)n1 [Crystal form II, (3aR,5s,6aS)—N-(3-methoxyl-1,2,4-thiadiazole-5-yl)-5-(methyl(7H-pyrrolo[2,3-d]pyrimidine-4-yl)amino)hexahydrocyclopenta[c]pyrrole-2(1H)-formamide bisulfate]
purity as detected by HPLC ([1]; 40° C., Day 0): 99.30%
purity as detected by HPLC ([1]; 40° C., Day 5): 99.30%
purity as detected by HPLC ([1]; 40° C., Day 10): 99.28%
purity as detected by HPLC ([1]; 60° C., Day 0): 99.30%
purity as detected by HPLC ([1]; 60° C., Day 5): 99.20%
purity as detected by HPLC ([1]; 60° C., Day 10): 99.15%
purity as detected by HPLC ([1]; Lighting (4500 Lux), Day 0): 99.30%
purity as detected by HPLC ([1]; Lighting (4500 Lux), Day 5): 99.29%
purity as detected by HPLC ([1]; Lighting (4500 Lux), Day 10): 99.30%
purity as detected by HPLC ([1]; RH 75%, Day 0): 99.30%
purity as detected by HPLC ([1]; RH 75%, Day 5): 99.31%
purity as detected by HPLC ([1]; RH 75%, Day 10): 99.28%
purity as detected by HPLC ([1]; RH 90%, Day 0): 99.30%
purity as detected by HPLC ([1]; RH 90%, Day 5): 99.31%
purity as detected by HPLC ([1]; RH 90%, Day 10): 99.31%
stability compared with the amorphous sample ([1]; conditions of high temperature and high humidity): significantly better than that of the amorphous sample
stability compared with the amorphous sample ([1]; conditions of lighting and high temperature): significantly better than that of the amorphous sample
effect of high humidity on stability [1]: does not have much effect
Crystal form after treatment ([2]; Grinding treatment for 10 minutes in a mortar under nitrogen atmosphere): form II
Crystal form after treatment ([2]; Heating treatment at 80° C. for 3 hours): form II
Crystal form after treatment ([2]; Pressing treatment, pressed to a slice): form II
stability of the crystal form ([2]; ground, heated and pressed): good stability; also recorded: stable
